Values joined by “and” are separate entries in the source; they are usually repeats but may differ in a detail not shown here. Equal entries are not always repeated.
Target: T1, ACE from pig kidney (Sus scrofa, UniProt F1RRW5)
T1 construct: 1 mU ACE from pig kidney (EC 3.4.15.1 (Sigma)); purchased Sigma; host or cells: pig kidney (tissue-derived enzyme)
T1 sequence (F1RRW5 34-1309): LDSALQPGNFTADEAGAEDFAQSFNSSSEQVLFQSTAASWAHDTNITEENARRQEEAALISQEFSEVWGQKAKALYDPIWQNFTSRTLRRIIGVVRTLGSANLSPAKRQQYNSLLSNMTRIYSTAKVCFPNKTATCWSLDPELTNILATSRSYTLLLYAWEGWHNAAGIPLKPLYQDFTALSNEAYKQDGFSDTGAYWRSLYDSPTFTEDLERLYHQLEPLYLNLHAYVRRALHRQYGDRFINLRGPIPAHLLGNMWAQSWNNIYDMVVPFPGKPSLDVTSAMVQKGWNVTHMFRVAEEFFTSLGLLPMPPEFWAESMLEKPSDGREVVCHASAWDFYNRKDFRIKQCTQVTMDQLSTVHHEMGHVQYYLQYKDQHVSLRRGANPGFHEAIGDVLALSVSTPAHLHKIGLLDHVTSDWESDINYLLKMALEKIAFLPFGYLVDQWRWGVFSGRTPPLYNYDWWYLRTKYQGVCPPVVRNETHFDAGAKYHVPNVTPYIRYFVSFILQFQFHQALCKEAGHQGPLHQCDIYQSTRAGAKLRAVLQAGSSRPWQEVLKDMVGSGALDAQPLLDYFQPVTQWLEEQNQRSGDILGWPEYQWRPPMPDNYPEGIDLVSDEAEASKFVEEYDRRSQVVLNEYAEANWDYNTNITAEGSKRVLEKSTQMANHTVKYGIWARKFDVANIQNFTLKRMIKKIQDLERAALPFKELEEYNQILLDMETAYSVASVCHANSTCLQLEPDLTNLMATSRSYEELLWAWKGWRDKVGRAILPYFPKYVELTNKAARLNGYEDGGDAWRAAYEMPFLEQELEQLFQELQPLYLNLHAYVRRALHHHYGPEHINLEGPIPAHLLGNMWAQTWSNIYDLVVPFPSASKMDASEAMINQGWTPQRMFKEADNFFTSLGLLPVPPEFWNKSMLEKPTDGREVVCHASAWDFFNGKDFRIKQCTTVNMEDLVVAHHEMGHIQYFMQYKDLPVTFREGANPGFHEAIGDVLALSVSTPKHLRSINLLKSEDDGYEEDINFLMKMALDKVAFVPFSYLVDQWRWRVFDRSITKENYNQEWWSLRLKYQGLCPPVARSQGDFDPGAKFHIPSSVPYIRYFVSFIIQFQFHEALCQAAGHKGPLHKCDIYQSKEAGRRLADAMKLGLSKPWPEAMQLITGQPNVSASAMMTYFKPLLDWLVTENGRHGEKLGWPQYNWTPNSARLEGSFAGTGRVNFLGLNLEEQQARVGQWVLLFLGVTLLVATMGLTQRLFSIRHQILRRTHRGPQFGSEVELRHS
Test: biochemical
Format: biochemical
Description: These peptides were investigated for their inhibitory effect using an in vitro-ACE-inhibitor-assay with an angiotensin-converting-enzyme derived from pig kidney. Hippuryl-histidyl-leucin was used as a substrate. […] A concrete experimental description is given below.
The principle of the ACE-inhibition-assay was established by Chejung, H. S., Cushman, D. W.: “Inhibition of homogenous angiotensin converting enzyme of rabbit lung by synthetic venom peptides of Bothrops jararaca.” in Biochimica et Biophysica Acta 293, 451-563 (1973).
The assay was performed in 96 well HTRF-plates (Packard). The concentrations used for each well were:
1 mU ACE from pig kidney (EC 3.4.15.1 (Sigma)) in 30 μl of assay buffer (25 mM HEPES; 0,3 M NaCl, pH 8,2) and 20 μl inhibitor dissolved in assay buffer (0,35-200 μM). The reaction was started by adding 50 μl of 2 mM hippuryl-histidyl-leucin (Sigma) in assay buffer. The reaction was performed at room temperature (22° C.) for 30 minutes and terminated by adding 50 μl of 2 M NaOH. Afterwards 50 μl of 0,5% ortho-phtalaldehyd (Sigma) in methanol were added, 5 minutes later followed by 50 μl of 2,5 M HCl-solution to stabilize the developed fluorescence product.
The results were used to calculate the % inhibition. The IC50-values were determined graphically from a curve showing the dose-reaction ratio.
In order to minimize errors due to time-dependent differences, all pipetting steps were performed in a precise time schedule.

[1] = inhibitor 0.78125 μM, replicates A-D
[2] = inhibitor 1.5625 μM, replicates A-D
[3] = inhibitor 3.125 μM, replicates A-D
[4] = inhibitor 6.25 μM, replicates A-D
[5] = inhibitor 12.5 μM, replicates A-D
[6] = inhibitor 25 μM, replicates A-D
[7] = inhibitor 50 μM, replicates A-D
[8] = inhibitor 100 μM, replicates A-D
[9] = inhibitor 200 μM, replicates A-D

## CC(C)C[C@H](NC(=O)[C@@H]1CCCN1C(=O)[C@@H](N)CO)C(=O)N1CCC[C@H]1C(=O)N[C@@H](CCC(=O)O)C(=O)N[C@H](C(=O)N1CCC[C@H]1C(=O)N1CCC[C@H]1C(=O)O)C(C)C [Peptide S547]
ACE from pig kidney, determined graphically, read-out: IC50-value (ACE inhibition)
  IC50: 27 µM
Inhibitor 0.39 μM, replicates A-D
  fluorescence reading (ACE Inhibitor Assay): 968576 and 976911 and 1033152 and 933502
Inhibitor 0.39 μM, replicates A-D, 0.39 µM
  % inhibition (ACE Inhibitor Assay): 6.82% and 6.02% and 0.575% and 10.22%
[1]
  fluorescence reading (ACE Inhibitor Assay): 935415 and 959358 and 928034 and 939702
  inhibition at 0.78125 µM: 10%
Inhibitor 0.78125 μM, replicates A-D, 0.78125 µM
  % inhibition (ACE Inhibitor Assay): 7.72% and 10.75% and 9.62%
[2]
  fluorescence reading (ACE Inhibitor Assay): 885259 and 942952 and 905782 and 900439
  inhibition at 1.5625 µM: 14.9%
Inhibitor 1.5625 μM, replicates A-D, 1.5625 µM
  % inhibition (ACE Inhibitor Assay): 9.3% and 12.9% and 13.42%
[3]
  fluorescence reading (ACE Inhibitor Assay): 853233 and 874120 and 919377 and 814056
  inhibition at 3.125 µM: 18%
Inhibitor 3.125 μM, replicates A-D, 3.125 µM
  % inhibition (ACE Inhibitor Assay): 15.96% and 11.6% and 21.78%
[4]
  fluorescence reading (ACE Inhibitor Assay): 737068 and 749780 and 773384 and 715138
  inhibition at 6.25 µM: 29.2%
Inhibitor 6.25 μM, replicates A-D, 6.25 µM
  % inhibition (ACE Inhibitor Assay): 28% and 25.72% and 31.35%
[5]
  fluorescence reading (ACE Inhibitor Assay): 661504 and 674042 and 682861 and 660883
  inhibition at 12.5 µM: 36.5%
Inhibitor 12.5 μM, replicates A-D, 12.5 µM
  % inhibition (ACE Inhibitor Assay): 35.33% and 34.48% and 36.6%
[6]
  fluorescence reading (ACE Inhibitor Assay): 561516 and 529553 and 559590 and 501835
  inhibition at 25 µM: 46.2%
Inhibitor 25 μM, replicates A-D, 25 µM
  % inhibition (ACE Inhibitor Assay): 49.3% and 46.4% and 52%
[7]
  fluorescence reading (ACE Inhibitor Assay): 367055 and 382045 and 460226 and 346051
  inhibition at 50 µM: 65%
Inhibitor 50 μM, replicates A-D, 50 µM
  % inhibition (ACE Inhibitor Assay): 63.59% and 56.02% and 67.07%
[8]
  fluorescence reading (ACE Inhibitor Assay): 229409 and 229360 and 232610 and 214324
  inhibition at 100 µM: 78.4%
Inhibitor 100 μM, replicates A-D, 100 µM
  % inhibition (ACE Inhibitor Assay): 78.05% and 79.82%
[9]
  fluorescence reading (ACE Inhibitor Assay): 115847 and 125213 and 123605 and 113488
  inhibition at 200 µM: 89.4%
Inhibitor 200 μM, replicates A-D, 200 µM
  % inhibition (ACE Inhibitor Assay): 88.45% and 88.6% and 89.58%

Reference: patent publication US20030203373A1 (priority 2002, published 2003)
